Assay [1] has as its system Axin2. The assay can be described thus: Axin2 expression in cell lysate of colorectal cancer cells treated with HCA and BCA. It counts as cell-based. The note with it: at an nM level. An excerpt: (§1) According to the previous research results, it has been known that 2′-Hydroxycinnamaldehyde (HCA), which is a main component of cinnamon, and a derivative thereof, i.e., 2′-benzoyloxycinnamaldehyde (BCA) inhibit cancer metastasis through Snail expression inhibition by inhibiting LRP-1 receptors (Hwang H et al., J Neuroimmunol 2011, 230, 52-64; Ismail I A, et al., Breast Cancer Res Treat, 137, 697-708, 2013). Thus, to confirm whether HCA and BCA are capable of inhibiting Axin2 expression and Snail expression, colorectal cancer cells were treated with HCA and BCA, and it was examined whether Axin2 and Snail were expressed in a cell lysate. As HCA and BCA, those separated from cinnamon bark and purified were used (Hwang H et al., J Neuroimmunol 2011, 230, 52-64). As a result, as illustrated in FIGS. 11A and 11B, it was confirmed that HCA and BCA inhibited the expression of Axin2 and Snail at an nM level.

Assay [2] deals with Snail. The assay can be described thus: Snail expression in cell lysate of colorectal cancer cells treated with HCA and BCA. It counts as cell-based. The note with it: at an nM level.
Source text: as §1

Assay [3] deals with oral precancer cell line D38. The assay can be described thus: Soft agar colony formation assay, D38. In kind it is cell-based. Particulars: 3 weeks, according to niclosamide treatment concentration. As to the method: (§2) The oral precancer cell line D38 and the oral cancer cell line YD10B were cultured on soft agar plates containing various concentrations of niclosamide. The corresponding concentration of niclosamide was administered while the respective cells were cultured on the soft agar plates for 3 weeks.

For assay [4], the target named is T1, recombinant GSK3 beta / Axin peptide interaction (Homo sapiens, UniProt P49841).
T1 construct: made in house; host or cells: Sf9 insect cells (GSK3 beta); peptide chemically synthesized (Peptron)
T1 sequence (P49841 whole entry): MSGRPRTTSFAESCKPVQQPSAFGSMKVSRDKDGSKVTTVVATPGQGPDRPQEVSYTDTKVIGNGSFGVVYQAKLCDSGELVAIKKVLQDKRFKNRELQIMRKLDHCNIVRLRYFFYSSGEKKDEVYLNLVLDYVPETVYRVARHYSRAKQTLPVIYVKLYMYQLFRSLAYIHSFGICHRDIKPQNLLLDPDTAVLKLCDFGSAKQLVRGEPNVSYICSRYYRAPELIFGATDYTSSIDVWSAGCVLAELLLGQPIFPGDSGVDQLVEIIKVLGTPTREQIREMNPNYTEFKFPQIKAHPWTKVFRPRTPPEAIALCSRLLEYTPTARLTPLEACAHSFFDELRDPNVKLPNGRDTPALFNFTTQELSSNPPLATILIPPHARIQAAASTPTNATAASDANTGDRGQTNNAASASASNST
The assay can be described thus: Competitive inhibition of recombinant GSK3 binding to FITC-conjugated 19-mer Axin peptide (bead fluorescence). The note with it: in proportionate to the concentration of niclosamide added; 2 hours. An excerpt: In the previously reported results of analyzing the structure of Axin-GSK3 binding, accumulation of the hydrophobic residues of Axin α-helix into a hydrophobic groove formed by the C-terminal loop of GSK3 is disclosed (Dajani R et al., EMBO J. 22:494-501, 2003), and thus the inventors of the present invention hypothesized that niclosamide would bind to the hydrophobic groove of GSK3 and interfere with the function of Axin. To verify this, in vitro analysis was designed to identify competitive inhibition of recombinant GSK3 binding to 19-mer FITC-conjugated Axin peptides by niclosamide.
Hig-tagged recombinant GSK3 beta was obtained from sf9 insect cells using a known method (Lee D G, et al. Nat Commun. 5:4423, 2014). The FITC-conjugated 19-mer Axin peptide (Axin1, 383-401, VEPQKFAEELIHRLEAVQR), which is known to bind to GSK3 as an amphipathic α-helix, was chemically synthesized (Peptron). To confirm competitive binding between the synthesized Axin peptide and niclosamide, His-tagged recombinant GSK3 and Ni—Ti beads were treated with niclosamide for 2 hours, and then washed three times with PBS, and quantitative fluorescence measurement was performed using Ni—Ti beads. Fluorescence intensity was represented in proportionate to the fluorescence intensity of a negative control from the 3rd experiment.

The subject of assay [5] is oral cancer cell line YD-10B. Description: Cell growth by counting cells in real time, YD-10B. In kind it is cell-based. The note with it: as the concentration of niclosamide was increased. On the procedure:
(§3) The oral cancer cell lines YD-10B and KB and the oral precancer cell line D38 were treated with various concentrations of niclosamide, and cell growth was measured by counting cells in real time.

For assay [6], the system named is Snail. The assay can be described thus: Snail expression in colorectal cancer cell lines treated with niclosamide. In kind it is cell-based. Particulars: HCT116, SW480, SW620 and DLD-1 cells; niclosamide at an nM level.
Assay [7] has as its system oral cancer cells YD10B. Description: 3D culture model, YD10B. It counts as cell-based. The note with it: YD10B three-dimensionally cultured, 0.125 μM niclosamide.
Another assay deals with T2, Axin-GSK3 complex (Homo sapiens, UniProt P49841).
T2 construct: expressed in transfected cells; host or cells: MCF-7 (Axin2 transfected, doxycycline-induced; GSK3 endogenous)
T2 sequence (P49841 whole entry, one chain of several): as the sequence (P49841 whole entry) above
The assay can be described thus: Immunoprecipitation of His-tagged Axin2 from MCF-7 cell lysate, immunoblot for GSK3. In kind it is binding. The note with it: MCF-7 cells with His-tagged Axin2, Triton X-100 lysate, Ni-Ti beads. As to the method:
To confirm whether niclosamide is capable of inhibiting Axin-GSK3 interaction, cell lysates with full-length Axin2 were examined to perform immunoprecipitation experiments in the presence or absence of niclosamide.
An immunoprecipitation assay was performed as follows (Yook J I, et al. Nat Cell Biol. 8:1398-1406, 2006).
A doxycycline-induced His-tagged Axin2 expression vector was transfected into MCF-7 cells (ATCC, American Type Culture collection) and cultured, and a Triton X-100 lysate of whole cells was treated with Ni—Ti beads (Invitrogen) and niclosamide at each concentration to allow a reaction to occur therebetween. Proteins recovered in the beads were subjected to SDS-PAGE, followed by immunoblot analysis for GSK3, and a 1/20 volume of a control was added thereto.

Assay [8] deals with oral precancer cell line D38. The assay can be described thus: 3D culture model on collagen sheet, D38. Particulars: 0.125 μM niclosamide. In kind it is cell-based. On the procedure: To confirm the niclosamide treatment effect in a 3D culture model, the results of treatment with 0.125 μM niclosamide when the oral precancer cell line D38 was cultured on a collagen sheet are illustrated in FIG. 17, in part A thereof.

The subject of a further assay is KB cell line. Description: Migration assay (crystal violet), KB. It counts as cell-based. The note with it: niclosamide-concentration-dependent. As to the method:
(§4) Cell migration is regulated by Axin2 and Snail. In the present example, the YD-10B cell line, the KB cell line, and the oral precancer cell line D38 were treated with niclosamide, a migration assay was performed thereon, and then the cells were stained with crystal violet and cell migration values were measured.

The subject of assay [9] is Axin2. The assay can be described thus: Axin2 expression in colorectal cancer cell lines treated with niclosamide. In kind it is cell-based. The note with it: HCT116, SW480, SW620 and DLD-1 cells; niclosamide at an nM level.
Assay [10] relates to oral precancer cell line D38. Description: Trypan exclusion assay for apoptosis. In kind it is cell-based. Particulars: D38, 72 hours, concentration-dependent. As to the method: The oral precancer cell line D38 was treated with various concentrations of niclosamide for 72 hours and apoptosis was confirmed through a trypan exclusion assay.
In assay [11] the test system is oral precancer cell line D38. The assay can be described thus: Cell growth by counting cells in real time, D38. In kind it is cell-based. Particulars: as the concentration of niclosamide was increased. As to the method:
as §3

In a further assay the target is recombinant GSK3β (Homo sapiens, UniProt P49841). The assay can be described thus: Surface plasma resonance (SPR) analysis on immobilized recombinant GSK3β. In kind it is binding. As to the method: Surface plasma resonance (SPR) analysis was performed to confirm whether niclosamide directly binds to GSK3. SPR was conducted using the ProteOn™ XPR36 Protein Interaction Array system (Bio-Rad Laboratories, Inc., CA, USA), and purified recombinant GSK3β, was immobilized to a ProteOn GLH sensor chip. Niclosamide or 19-mer wild type Axin peptide or mutant peptide (VEPQKAAEEAIHRAEAVQR, mutation underlined) were diluted by phosphate-buffered saline+Tween 20+1% DMSO at different concentrations and then flowed over the chip at a rate of 100 μl/min. The results thereof were analyzed by ProteOn Manager Software 2.0 using the standard Langmuir models for fitting kinetic data. The rate of complex formation was represented by the association constant (ka, in the unit of M-1s-1), and the rate of complex decay was represented by the dissociation constant (kd, in the unit of s-1), as given by Equation 1 below.
recombinant GSK3β, sequence (P49841 whole entry): as above
A high-affinity interaction is represented by a low dissociation constant, and rapid recognition and binding with interactants (rapid “on rate,” or high ka) and the stability of complex formation (slow “off rate,” or low kd) are as shown in the following equation: KD=kd/ka.

For another assay, the system named is oral cancer cell line KB. Description: Cell growth by counting cells in real time, KB. Particulars: as the concentration of niclosamide was increased. It counts as cell-based. On the procedure: as §3
For assay [12], the system named is oral cancer cells YD10B. The assay can be described thus: YD10B oral cancer cell transplant in immunodeficient mice. It counts as in vivo. The note with it: 200 mg/kg (mpk), orally, daily; Balb/c athymic nude mice with YD10B cells. From the text:
To confirm the effect of niclosamide on the inhibition of oral cancer in an animal model, oral cancer cells YD10B (3×10^6 cells) were transplanted to immunodeficient mice (Balb/c, athymic nude mice, NaraBiotech), the mice were divided into two groups, and then niclosamide was orally administered to the two groups daily.

In assay [13] the test system is oral precancer cell line D38. Description: Migration assay (crystal violet), D38. In kind it is cell-based. The note with it: niclosamide-concentration-dependent. As to the method: as §4
The subject of assay [14] is Snail. The assay can be described thus: Western blotting of Snail in oral cancer and oral precancer cell lines. In kind it is cell-based. The note with it: YD-10B, KB and D38 cell lines, 16 hours. From the text:
(§5) The expression of Axin2 and Snail was confirmed in a cell lysate after treating YD-10B (CVCL-8929) and KB (CVC_L 0372), which are oral cancer cell lines, and D38, which is an oral precancer cell line (McGregor F. et al., CANCER RESEARCH 62, 4757-4766, 2002), with various concentrations of niclosamide by using the same method of Example 5.
(§6) For the YD-10B and KB cell lines, a RPMI1640 medium containing 10% FBS and 1% penicillin/streptomycin was used. For the oral precancer cell line D38, a DMEM: F12 (3:1) medium containing 10% FBS and 1% penicillin/streptomycin was used. The respective cells were treated with niclosamide at the indicated concentration for 16 hours and the expression of Axin2 and Snail was analyzed through western blotting.

Assay [15] relates to oral cancer cell line YD10B. Description: Soft agar colony formation assay, YD10B. In kind it is cell-based. Particulars: 3 weeks, according to niclosamide treatment concentration. As to the method: as §2
The test system of the next assay is YD-10B cell line. The assay can be described thus: Migration assay (crystal violet), YD-10B. It counts as cell-based. Particulars: niclosamide-concentration-dependent. As to the method: as §4
Assay [16] deals with Axin2. Description: Western blotting of Axin2 in oral cancer and oral precancer cell lines. It counts as cell-based. Particulars: YD-10B, KB and D38 cell lines, 16 hours.
Source text: as §5, §6

As to `O=CC=Cc1ccccc1OC(=O)c1ccccc1` [BCA, 2′-benzoyloxycinnamaldehyde], the “expression of Axin2” value in the assay on Axin2 [1] is reported as “inhibited”. Also, the “expression of Snail” value with Snail [2] is “inhibited”.
Take `O=CC=Cc1ccccc1O` [HCA, 2′-Hydroxycinnamaldehyde]: in the assay with Axin2 [1], the “expression of Axin2” value is given as “inhibited”. Moreover, the “expression of Snail” value in the assay on Snail [2] is given as “inhibited”.
Consider `O=C(Nc1ccc([N+](=O)[O-])cc1Cl)c1cc(Cl)ccc1O` [niclosamide], for which the colony formation entry in assay [3] and in assay [15] was “inhibited” in each case. Besides, in [4], the “interaction between the recombinant GSK3 and the synthesized Axin peptide” value is given as “inhibited”. For the same compound, the cell growth result (in assay [5]; in [11]; with oral cancer cell line KB) was “inhibited” each time. Also, the Snail expression result in the assay with Snail [6] was “decreased”. Further, the “invasiveness of cancer cells” value in the assay on oral cancer cells YD10B [7] is recorded as “rapidly reduced”. In addition, the “GSK3 that binds to Axin2 in a total cell lysate” value on Axin-GSK3 complex is reported as “reduced”. Besides, the cell density entry in assay [8] is “reduced”. Further, the keratinocytic differentiation result in [8] was “induced”. In assay [8] (destroyed in control), the basal membrane result is reported as “smooth basal membrane was observed”. Moreover, the cell migration entry (in the assay on KB cell line; in assay [13]; in the assay with YD-10B cell line) was “inhibited” each time. Also, in the assay with Axin2 [9], the Axin2 expression result is listed as “decreased”. Moreover, the apoptosis entry in assay [10] was “occurred”. For the same compound, the “direct binding to GSK3” value on recombinant GSK3β is “directly bound”. Further, the Kd at recombinant GSK3β (GSK3β immobilized on sensor chip, read-out: equilibrium dissociation constant KD) came to 34 µM. Also, in the assay with oral cancer cells YD10B [12], the volume of tumors result is “reduced”. Also, the “expression of Snail” value in the assay with Snail [14] is “inhibited”. In addition, the “expression of Axin2” value with Axin2 [16] is recorded as “inhibited”.
Turning to `CC[C@H](C)[C@H](NC(=O)[C@H](CC(C)C)NC(=O)[C@H](CCC(=O)O)NC(=O)[C@H](CCC(=O)O)NC(=O)[C@H](C)NC(=O)[C@H](Cc1ccccc1)NC(=O)[C@H](CCCCN)NC(=O)[C@H](CCC(N)=O)NC(=O)[C@@H]1CCCN1C(=O)[C@H](CCC(=O)O)NC(=O)[C@@H](N)C(C)C)C(=O)N[C@@H](Cc1c[nH]cn1)C(=O)N[C@@H](CCCNC(=N)N)C(=O)N[C@@H](CC(C)C)C(=O)N[C@@H](CCC(=O)O)C(=O)N[C@@H](C)C(=O)N[C@H](C(=O)N[C@@H](CCC(N)=O)C(=O)N[C@@H](CCCNC(=N)N)C(=O)O)C(C)C` [wild type Axin peptide], at recombinant GSK3β, the “direct binding to GSK3” value is “directly bound”.
As for “Mutant Axin peptide: mutant 19-mer Axin peptide VEPQKAAEEAIHRAEAVQR, mutations on hydrophobic residues”, the “binding to GSK3 protein immobilized on a sensor surface” value with recombinant GSK3β (up to 100 μM) is given as “unable to bind”.

These data come from patent US20190388362A1, “PHARMACEUTICAL COMPOSITION FOR TREATING ORAL PRECANCER AND METHOD FOR PREDICTING OR DIAGNOSING ORAL PRECANCER OR ORAL CANCER” (MET Life Sciences Co., Ltd., priority 2017, published 2019).
